Source: patent publication US9844529B2, “Combination therapy for ovarian cancer” (Eli Lilly And Company, priority 2011, dated 2017)

Assays:
SK-OV-3x.luc xenografts = assay: SK-OV-3x.luc ovarian cancer xenograft tumor growth inhibition in mice; assay type: in vivo, mouse
Experimental: (§1) Human tumor mouse xenografts are generated from early passages of the following ovarian cancer cell lines: A-2780 (National Cancer Institute), SK-OV-3x.luc (SK-OV-3 cell line modified to express luciferase (#1, medium expressing), Indiana University). A-2780 ovarian cancer cells are grown in RPMI 1640 with L-glutamine, 25 mM HEPES (Invitrogen 22400-089) supplemented with 1 mM pyruvate and 10% Certified Fetal Bovine Serum (Gibco 16000, FBS). SK-OV-3x.luc cells (ovarian cancer cells) are grown in McCoy's 5A Medium with L-glutamine (Invitrogen 16600-082) supplemented with non-essential amino acids, 1 mM pyruvate and 10% FBS. Harlan athymic nude mice (6-7 weeks old) are housed with ad libitum feed and water, and are acclimated for one week prior to subcutaneous xenograft implantation in the right rear flank with a defined number of cells. A-2780 or SK-OV-3x.luc implants consist of 0.1 mL of cells (2 or 5×10^6 cells, respectively) in serum-free media with 0.1 mL MATRIGEL® (BD Biosciences) for a final volume of 0.2 mL. Tumors are allowed to develop to a volume of 120-150 mm^3 and are then randomized into treatment groups to attain a consistent average tumor size across all groups. Each treatment group of the SK-OV-3x.luc study is 12 animals; each group of the A-2780 study is 20 animals. Compound A is prepared weekly in hydroxyethylcellulose (HEC) 1%/TWEEN® 80 0.25%/Antifoam 0.05% (HEC/TWEEN®) and stored at 4° C. […] Compound A, 30 mg/kg, oral, TID×21/gemcitabine+cisplatin, 100+4 mg/kg, IP, QW×3* • *SK-OV-3x.luc study only Tumor volume and body weight are recorded and analyzed twice weekly using a data capture and analysis tool. Tumor volume (mm^3) is estimated by using the formula: ν=l×w^2×0.536 where l=larger of measured diameter and w=smaller of perpendicular diameter. Antitumor activity is calculated as a percent reduction of treated (T) tumor volume relative to untreated control (C) tumor volume [1−(T/C)]×100. […]

A-2780 xenografts = assay: A-2780 ovarian cancer xenograft tumor growth inhibition in mice; assay type: in vivo, mouse; settings: Compound A 10 mg/kg oral TID×21 alone
Experimental: as §1, with “cells.” for “cells. A-2780 or SK-OV-3x.luc implants consist of 0.1 mL of cells (2 or 5×10^6 cells, respectively) in serum-free media with 0.1 mL MATRIGEL® (BD Biosciences) for a final volume of 0.2 mL. Tumors are allowed to develop to a volume of 120-150 mm^3 and are then randomized into treatment groups to attain a consistent average tumor size across all groups. Each treatment group of the SK-OV-3x.luc study is 12 animals; each group of the A-2780 study is 20 animals. Compound A is prepared weekly in hydroxyethylcellulose (HEC) 1%/TWEEN® 80 0.25%/Antifoam 0.05% (HEC/TWEEN®) and stored at 4° C.”

## CC(C)(C)Cn1c(N)nc2ccc(-c3nc(C(C)(C)C)[nH]c3-c3ccc(F)cc3)nc21 [Compound A, 5-[2-tert-Butyl-5-(4-fluorophenyl)-1H-imidazol-4-yl]-3-(2,2-dimethylpropyl)imidazo[4,5-b]pyridin-2-amine dimethanesulfonate]
SK-OV-3x.luc xenografts; Compound A 30 mg/kg oral TID×21 alone, SK-OV-3x.luc
  Max % wt. loss: 1.4%
SK-OV-3x.luc xenografts; Compound A 30 mg/kg oral TID×21 alone, SK-OV-3x.luc, 3 weeks
  final tumor volume: 522 ± 54 mm^3
SK-OV-3x.luc xenografts; Compound A alone, 3 weeks, SK-OV-3x.luc xenografts
  final average tumor volume compared with vehicle control: not significantly different from vehicle control
A-2780 xenografts
  Max % wt. loss: 3.0%
A-2780 xenografts; 3 weeks
  final tumor volume: 1828 ± 208 mm^3
